# Assay results reported in US20120065365A1, “Stable Radiopharmaceutical Compositions and Methods for Their Preparation” (BRACCO IMAGING S.P.A., priority 2003, published 2012).
# Where two headings read alike, the source gives them in different places.
# Assays:
# [1] = type: physicochemical
# [2] = type: physicochemical; remark: listed apart in the source
# Protocol: The injection volume was 20 μL.
# Solutions of 1-pyrrolidine dithiocarbamic acid ammonium salt (PDTC) were prepared at concentrations of 20-, 10-, 5- and 1 mg/mL by dissolving it in a sodium acetate (NaOAc) buffer solution (0.2 M, pH 4.8). To lead-shielded 300-μL sample vials were added, individually, 50-μL aliquots of the PDTC-NaOAc butter solutions, including an aliquot of the NaOAc buffer only, to serve as a control sample. To each buffer aliquot was added 9.95 mCi ^177LuCl3 (avg) and 17.2 μg COMPOUND A (dissolved in water). The molar ratio of COMPOUND A:Lu (total Lu) for each sample was 3:1. During the reaction, in each sample, the concentration of COMPOUND A was 287-μg/mL and the activity concentration was 167-mCi/mL. The samples wore heated to 100° C. for 5 minutes, then cooled for 5 minutes in an ambient-temperature water bath. To each sample, 10 μL of 2% EDTA in water was added, and then each was analyzed by HPLC (Method 3) over 48 hours. At t=0, the radioactivity concentration was 143 mCi/mL.
# [3] = type: physicochemical; remark: listed apart in the source
# Protocol: The ratio of COMPOUND A to Lutetium was 3:1 for all samples. The reaction mixtures were heated, cooled, treated with Na2EDTA.2H2O and analyzed by HPLC as described in Example 13, and then stored at room temperature for 24 hours, at which time all samples were analyzed again.
# [4] = Effect of contaminant zinc on ^177Lu-B labeling with PDTC in reaction buffer (Example 20); type: physicochemical; conditions: Sample 2: COMPOUND B with ^177Lu in the presence of zinc and PDTC (COMPOUND B:^177Lu:Zinc 3:1:3)
# Protocol: The injection volume was 10 μL.
# At times, ^177LuCl3 isotope solutions are contaminated with non-radioactive metals that can interfere with radiolabeling. These metals (which may include, for example Zn, Cu, Ca and Fe among others), can compete with ^177Lu for the chelator, thus lowering reaction yields by consuming ligand so it is unavailable for chelation to ^177Lu.
# A 10-mg/mL solution of 1pyrrolidine dithiocarbamic acid ammonium salt was prepared by dissolving it in sodium acetate buffer (0.2 M, pH 4.8). To a lead-shielded, 300-μL sample vial was added 86.5 μL of the NaOAc buffer solution, 13.7 mCi ^177LuCl3, 0.6525 μg zinc (6.52 μL of a 100-μg/mL zinc plasma standard solution) and 15 μg COMPOUND B (dissolved in water). This was labeled as ‘Sample 1’. To another lead-shielded, 300-μL sample vial was added 86.5 μL of the […] 1-pyrrolidine dithiocarbamic acid ammonium salt/NaOAc buffer solution, 13.8 mCi ^177LuCl3, 0.6525 μg zinc and 15 μg COMPOUND B. This was labeled as ‘Sample 2’. The concentration of COMPOUND B in each sample was 150 μg/mL and the molar ratio of COMPOUND B:^177Lu:Zinc for each sample was 3:1:3. The samples were heated to 100° C. for 5 min, and then cooled for 5 min in an ambient-temperature water bath. To each sample, 10 μL of 2% Na2EDTA.2H2O in water was added, and then each was analyzed by HPLC, using HPLC Method 5.
# [5] = ^177Lu-A prepared with PDTC 1 mg/mL (0.05 mg)
# [6] = ^177Lu-A prepared with PDTC 5 mg/mL (0.25 mg)
# [7] = ^177Lu-A prepared with PDTC 10 mg/mL (0.5 mg)
# [8] = ^177Lu-A prepared with PDTC 20 mg/mL (1 mg)
structure (smiles),measurement,setting,value
"N.S=C(S)N1CCCC1 [PDTC, 1-pyrrolidine dithiocarbamic acid ammonium salt]",(% RCP) 6-h,"[1]; ^177Lu-B (44-53 mCi) formulated with 5 mg stabilizing compound, 6 h",94.7%
same,(% RCP) 24-h,"[1]; ^177Lu-B (44-53 mCi) formulated with 5 mg stabilizing compound, 24 h",94.0%
same,(% RCP) 0-h,"[1]; ^177Lu-B (44-53 mCi) formulated with 5 mg stabilizing compound, diluted to ~2 mL, ~6° C. above room temperature, 0 h",95.0%
same,RCP Drop over 24 hr,"[1]; ^177Lu-B formulated with 5 mg stabilizing compound, 0 to 24 h",1%
same,RCP (%) 0-h,"[2]; ^177Lu-A 143 mCi/mL at t=0, prepared with PDTC 1 mg/mL (0.05 mg)",100%
same,RCP (%) 0-h,"[2]; ^177Lu-A 143 mCi/mL at t=0, prepared with PDTC 5 mg/mL (0.25 mg)",100%
same,RCP (%) 0-h,"[2]; ^177Lu-A 143 mCi/mL at t=0, prepared with PDTC 10 mg/mL (0.5 mg)",100%
same,RCP (%) 0-h,"[2]; ^177Lu-A 143 mCi/mL at t=0, prepared with PDTC 20 mg/mL (1 mg)",100%
same,RCP (%) 3-h,[2]; [5],100%
same,RCP (%) 6-h,[2]; [5],17.2%
same,RCP (%) 12-h,[2]; [5],0%
same,RCP (%) 24-h,[2]; [5],0%
same,RCP (%) 3-h,[2]; [6],100%
same,RCP (%) 6-h,[2]; [6],100%
same,RCP (%) 12-h,[2]; [6],100%
same,RCP (%) 24-h,[2]; [6],0%
same,RCP (%) 3-h,[2]; [7],100%
same,RCP (%) 6-h,[2]; [7],100%
same,RCP (%) 12-h,[2]; [7],100%
same,RCP (%) 24-h,[2]; [7],100%
same,RCP (%) 48-h,[2]; [7],100%
same,RCP (%) 3-h,[2]; [8],100%
same,RCP (%) 6-h,[2]; [8],100%
same,RCP (%) 12-h,[2]; [8],100%
same,RCP (%) 24-h,[2]; [8],100%
same,RCP (%) 48-h,[2]; [8],100%
same,RCP for up to 48 hours,"[2]; ^177Lu-A, PDTC at 20 mg/mL",100%
same,RCP % t = 0 h,"[3]; ^177Lu-A (4.65-5.64 mCi) prepared in presence of stabilizer 5 mg/mL, 0 h",100%
same,RCP % t = 24 h,"[3]; ^177Lu-A prepared in presence of stabilizer 5 mg/mL, room temperature, 24 h",99.9%
same,RCP,[4],100%
